Test results published in patent US10392630B2, “Plants having increased tolerance to herbicides” (BASF AGRO B.V., priority 2013, dated 2019).
Numbering of substitutions follows the chain as printed.

How the values were obtained:
Test in all cases: biochemical
[1] = target: T1, Amaranthus mutant PPO (AMARE) (Amaranthus tuberculatus, UniProt Q0NZW9, F420I/R128I)
T1 sequence (Q0NZW9 1-534 R128I/F420I): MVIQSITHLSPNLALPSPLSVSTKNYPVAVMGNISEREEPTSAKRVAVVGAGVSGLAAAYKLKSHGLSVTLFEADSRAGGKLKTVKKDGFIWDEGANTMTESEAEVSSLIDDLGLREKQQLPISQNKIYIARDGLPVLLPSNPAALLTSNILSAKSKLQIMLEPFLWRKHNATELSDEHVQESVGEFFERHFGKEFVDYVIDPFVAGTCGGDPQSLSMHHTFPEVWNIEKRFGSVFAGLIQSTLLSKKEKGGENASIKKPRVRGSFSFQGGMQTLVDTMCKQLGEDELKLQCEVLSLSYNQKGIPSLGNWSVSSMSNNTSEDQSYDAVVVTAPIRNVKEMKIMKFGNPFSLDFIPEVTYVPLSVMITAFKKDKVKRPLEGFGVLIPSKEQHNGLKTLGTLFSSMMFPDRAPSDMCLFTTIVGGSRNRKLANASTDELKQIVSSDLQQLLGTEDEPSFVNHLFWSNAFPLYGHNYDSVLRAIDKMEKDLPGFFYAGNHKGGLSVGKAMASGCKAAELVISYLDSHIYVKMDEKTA

[2] = target: T2, Amaranthus mutant PPO (AMARE) (Amaranthus tuberculatus, UniProt Q0NZW9, F420L/R128A)
T2 sequence (Q0NZW9 1-534 R128A/F420L): T1 sequence (Q0NZW9 1-534 R128I/F420I) with I128A, I420L

[3] = target: T3, Amaranthus mutant PPO (AMARE) (Amaranthus tuberculatus, UniProt Q0NZW9, F420I/R128L)
T3 sequence (Q0NZW9 1-534 R128L/F420I): T1 sequence (Q0NZW9 1-534 R128I/F420I) with I128L

[4] = target: T4, Amaranthus mutant PPO (AMARE) (Amaranthus tuberculatus, UniProt Q0NZW9, R128L)
T4 sequence (Q0NZW9 1-534 R128L): T1 sequence (Q0NZW9 1-534 R128I/F420I) with I128L, I420F

[5] = target: T5, Amaranthus mutant PPO (AMARE) (Amaranthus tuberculatus, UniProt Q0NZW9, R128A)
T5 sequence (Q0NZW9 1-534 R128A): T1 sequence (Q0NZW9 1-534 R128I/F420I) with I128A, I420F

For C#CCN1C(=O)C(F)(F)Oc2cc(F)c(-n3c(=O)n(C)c(=S)n(C)c3=O)cc21 [BAS 850H], the IC50 [1] was 433 nM, the IC50 [2] was 16.2 nM and the IC50 [3] was 1230 nM.

With CC(C)N(C)S(=O)(=O)NC(=O)c1cc(-n2c(=O)cc(C(F)(F)F)n(C)c2=O)c(F)cc1Cl [saflufenacil] the IC50 [4] was 222 nM, the IC50 [1] was over 10000 nM and the IC50 [5] was 129 nM. The IC50 [2] was over 10000 nM and the IC50 [3] was over 10000 nM.
